{
  "source": "patent US6248575A",
  "about": "“Nucleic acids encoding polypeptides having L-amino acid oxidase activity” (Novozymes Biotech, Inc., priority 1999, dated 2001)",
  "molecules": {"B1": {"name": "L-amino acid oxidase: purified L-amino acid oxidase from Trichoderma harzianum CBS 223.93; deduced protein of 617 amino acids (SEQ ID NO. 2) (protein)", "chain": "MDNVDFAESVRTRWARRLIREKVAKELNILTERLGEVPGIPPPNEGRFLGGGYSHDNLPSDPLYSSIKPALLKEAPRAEEELPPRKVCIVGAGVSGLYIAMILDDLKIPNLTYDIFESSSRTGGRLYTHHFTDAKHDYYDIGAMRYPDIPSMKRTFNLFKRTKMPLIKYYLDGENTPQLYNNHFFAKGVSDPYMVSVANGGTVPDDVVDSVGEKLQQAFGYYKEKLAEDFDKGFDELMLVDDMTTREYLKRGGPKGEAPKYDFFAIQWMETQNTGTNLFDQAFSESVIDSFDFDNPTKPEWYCIEGGTSLLVDAMEKTLVHKVQNNKRVDAISIDLDAPDDGNMSVRIGGKEHSGYSTVFNTTALGCLDRMDLRGLNLHPTQADAIRCLHYDNSTKVALKFSYPWWIKDCGITCGGAASTDLPLRTCVYPSYNLADTGEAVLLASYTWSQDATRIGSLVKEAPPQPPKEDELVELILQNLARLHAEHMTYEKIKEAYTGVYHAYCWANDPNVGGAFALFGPGQFSNLYPYLMRPAAGGKFHIVGEASSVHHAWIIGSLESAYTAVYQFRYKYKMWDYLKLLLERWQYGLQELETGKHGTAHLQFILGSLPKEYQVKI"}},
  "key": {"[1]": {"molecular_target": "T1, Trichoderma harzianum CBS 223.93 L-amino acid oxidase (Trichoderma harzianum, UniProt A0A2T4A4V3)", "T1 sequence (A0A2T4A4V3 with tags, fused parts or gaps V19I/P71L/S84P/G163K/E317K/D352E/Y353H/V383A/D435A/DEL437-437/D438T/D462E/L570R/R580K/V618I)": "B1 chain", "assay": "Substrate specificity: specific activity and Km with various L-amino acids as substrates", "assay_type": "biochemical", "conditions": "for Specific Activity / activity of the L-amino acid oxidase towards the substrate: phosphate buffer pH 8.5, room temperature; for Specific Activity: 20 minutes; for ranking of Km values among substrates: comparison of the substrates of Table 1; for Km: Lineweaver-Burk plots (1/v versus 1/s)", "protocol": "(§1) In the following characterization experiments, detection of H2 O2 was carried out using a Coprinus cinereus peroxidase (CiP), obtained according to WO 92/16634, at a level of 4.5 PODU/ml, and 0.4 mM ABTS in phosphate buffer at pH 7.0. The hydrogen peroxide concentrations were determined relative to a freshly prepared hydrogen peroxide standard solution.\nFor determination of substrate specificity, the activity of the L-amino acid oxidase was determined with various L-amino acids as substrates. The L-amino acid oxidase was incubated with the substrate in phosphate buffer at pH 8.5 and room temperature for 20 minutes. Generated hydrogen peroxide was detected using ABTS and CiP as described above. The specific activity was determined as described in Example 2 above.\nKm values for the various substrates were determined by plotting values of 1/v versus 1/s (Lineweaver-Burk plots)."}, "[2]": {"assay": "Specific activity of the purified L-amino acid oxidase", "assay_type": "biochemical, Trichoderma harzianum", "conditions": "50 mM phosphate buffer pH 8.5, 20° C., 1 mM L-arginine as substrate", "protocol": "For purposes of the present invention, L-amino acid oxidase activity is determined according to the procedure described in WO 94/25574 where the hydrogen peroxide produced during the […] of L-arginine is measured by coupling the reaction to a peroxidase in the presence of 2,2'-azinobis(3-ethylbenzothiazoline-6sulfonate) (ABTS) which produces a greenish-blue color at 418 nm. One unit of L-amino acid oxidase activity is defined as 1.0 μmole of hydrogen peroxide produced per minute at 20° C. in 50 mM phosphate buffer at pH 8.5 with 1 mM L-arginine as substrate.\nThe specific activity of the purified L-amino acid oxidase was 16 U/mg determined in a 50 mM phosphate buffer at pH 8.5, 20° C. with 1 mM L-arginine as substrate. One unit of enzyme will form 1 μmole of hydrogen peroxide per minute. The amount of protein was quantified assuming that a solution of the L-amino acid oxidase having an optical density of 1 determined at 280 nm contains 1 mg of protein/ml. The L-amino acid oxidase yield was approximately 50 mg of pure protein per liter of culture medium."}, "[3]": {"assay": "pH stability of the L-amino acid oxidase (residual activity)", "assay_type": "physicochemical, Trichoderma harzianum", "conditions": "1 hour at 40° C., 50 mM phosphate buffer, FIG. 2", "protocol": "as §1\n(§2) For determination of the pH optimum, the assay was carried out in two steps. In the first step, the L-amino acid oxidase was incubated for 20 minutes with 1 mM of L-arginine in 100 mM of phosphate buffer at various pH values. In the second step, the generated hydrogen peroxide was detected as described above.\nFor determination of pH stability, the L-amino acid oxidase was incubated at various pH values for 1 hour at 40° C. in 50 mM of phosphate buffer. After dilution, residual activity was measured using the two-step procedure described above."}, "[4]": {"assay": "Temperature stability of the L-amino acid oxidase (residual activity)", "assay_type": "physicochemical, Trichoderma harzianum", "conditions": "phosphate buffer pH 8.5, 1 hour, FIG. 3", "protocol": "as §1, §2\nFor determination of temperature stability, the L-amino acid oxidase was incubated in phosphate buffer at pH 8.5 for 1 hour at various temperatures. After dilution, residual activity was measured using the two-step procedure described above."}, "[5]": {"assay": "pH activity profile / pH optimum of the L-amino acid oxidase", "assay_type": "biochemical, Trichoderma harzianum", "conditions": "20 minutes, 1 mM L-arginine, 100 mM phosphate buffer; FIG. 1", "protocol": "as §1, §2"}},
  "data": [
    {"molecule": "N=C(N)NCCC[C@H](N)C(=O)O", "note": "[L-arginine]", "values": [
      {"measurement": "Specific Activity", "setting": "[1]; Substrate Conc. 1 mM", "result": 16, "unit": "U/mg"},
      {"measurement": "Specific Activity", "setting": "[1]; Substrate Conc. 10 mM", "result": 30, "unit": "U/mg"},
      {"measurement": "ranking of Km values among substrates", "setting": "[1]", "result": "lowest Km values"},
      {"measurement": "preferred substrate", "setting": "[1]; from the experiments of Table 1", "result": "preferred substrate"},
      {"measurement": "activity of the L-amino acid oxidase towards the substrate", "setting": "[1]", "result": "showed activity"}
    ]},
    {"molecule": "NC(=O)C[C@H](N)C(=O)O", "note": "[L-asparagine]", "values": [
      {"measurement": "Specific Activity", "setting": "[1]; Substrate Conc. 80 mM", "result": 7, "unit": "U/mg"},
      {"measurement": "activity of the L-amino acid oxidase towards the substrate", "setting": "[1]", "result": "showed activity"}
    ]},
    {"molecule": "CSCC[C@H](N)C(=O)O", "note": "[L-methionine]", "values": [
      {"measurement": "Km", "setting": "[1]", "result": 15, "unit": "mM"},
      {"measurement": "Specific Activity", "setting": "[1]; Substrate Conc. 80 mM", "result": 8, "unit": "U/mg"},
      {"measurement": "activity of the L-amino acid oxidase towards the substrate", "setting": "[1]", "result": "showed activity"}
    ]},
    {"molecule": "NCCCC[C@H](N)C(=O)O", "note": "[L-lysine]", "values": [
      {"measurement": "Km", "setting": "[1]", "result": 0.2, "unit": "mM"},
      {"measurement": "Specific Activity", "setting": "[1]; Substrate Conc. 1 mM", "result": 7, "unit": "U/mg"},
      {"measurement": "ranking of Km values among substrates", "setting": "[1]", "result": "lowest Km values"},
      {"measurement": "activity of the L-amino acid oxidase towards the substrate", "setting": "[1]", "result": "showed activity"}
    ]},
    {"molecule": "CC(C)C[C@H](N)C(=O)O", "note": "[L-leucine]", "values": [
      {"measurement": "Specific Activity", "setting": "[1]; Substrate Conc. 80 mM", "result": 16, "unit": "U/mg"},
      {"measurement": "activity of the L-amino acid oxidase towards the substrate", "setting": "[1]", "result": "showed activity"}
    ]},
    {"molecule": "N[C@@H](Cc1ccccc1)C(=O)O", "note": "[L-phenylalamine]", "values": [
      {"measurement": "Specific Activity", "setting": "[1]; Substrate Conc. 80 mM", "result": 25, "unit": "U/mg"},
      {"measurement": "activity of the L-amino acid oxidase towards the substrate", "setting": "[1]", "result": "showed activity"}
    ]},
    {"molecule": "B1", "values": [
      {"measurement": "specific activity of the purified L-amino acid oxidase", "setting": "[2]", "result": 16, "unit": "U/mg"},
      {"measurement": "pH stability relative to initial activity", "setting": "[3]; pH 10", "result": "more than 70%"},
      {"measurement": "pH stability relative to initial activity", "setting": "[3]; range pH 7-9.5", "result": "more than 80%"},
      {"measurement": "temperature range in which the enzyme is stable", "setting": "[4]", "result": "from below 22 °C to above 60 °C"},
      {"measurement": "temperature stability relative to initial activity", "setting": "[4]; range 25° C. to 60° C.", "result": "more than 80%"},
      {"measurement": "pH interval in which activity is shown", "setting": "[5]", "result": "from pH below 7 to a pH of approximately 12"},
      {"measurement": "pH optimum", "setting": "[5]", "result": "~9", "unit": "pH"}
    ]}
  ]
}
